Results published in patent US10149472B2, “Chitin oligomers for use in promoting non-leguminous plant growth and development” (Wisconsin Alumni Research Foundation, priority 2015, dated 2018).

Columns and labels:
[1] = system: rice trichoblasts (root hair cells); test: Calcium spiking (YC3.6 imaging) in rice trichoblasts (root hair cells); assay type: cell-based, Oryza sativa cv Nipponbare; conditions: 10^−5 M, FIG. 5, FIG. 6
Procedure: Mycorrhizal induced calcium responses were measured as described previously (14). Transgenic Oryza sativa Nipponbare lines carrying Yellow Cameleon 3.6 (YC3.6) FRET-based calcium sensor was used to detect calcium spiking. YC3.6 was imaged on a Nikon Eclipse Ti inverted microscope (Nikon, Japan) equipped with an OptoLED Illuminator (model OptoLED, Cairn Research Ltd, UK). YC3.6 was excited at a wavelength of 455 nm using a royal blue LED and was captured with a charge-coupled device (CCD) camera (model RETIGA-SRV, Qimaging, Canada). Emitted fluorescence was separated by an image splitter with a dichroic mirror (model Optosplit II, Cairn Research Ltd, UK) and then passed through a fluorescence filter set. Images were collected every 5 seconds with 1-second exposure and analyzed using MetaFluor (Molecular Devices, Sunnyvale, Calif., USA).
Both LCOs and COs are Required to Induce Calcium Spiking in Trichoblasts. Rhizobia colonize legumes by root hair cells (trichoblasts), whereas AM fungi colonize roots via non-root hair epidermal cells (atrichoblasts). Thus, these different root epidermal cell types may respond differently to COs and LCOs. To test this, we directly compared trichoblast and atrichoblast responses using high concentrations of CO4 in rice. Calcium oscillations observed in rice following treatments of CO4 were restricted to atrichoblasts, with no responses in trichoblasts even with CO4 treatments of 10^−5 M (FIG. 5). This preferential nature of rice atrichoblasts to respond to the AM signals is consistent with a preference for AM fungi to colonize the root via atrichoblasts (26). It is possible that either AM fungi produce signalling molecules other than S-LCO, NS-LCO and CO4 that induce calcium oscillations in rice trichoblasts, or that the mix of signalling molecules is important. To test this, we assessed induction of calcium oscillations by an equimolar mix of 10^−5 M S-LCO, NS-LCO, and CO4.

rice = test: Root architecture modification in wild-type rice after submersion treatment; assay type: in vivo, Oryza sativa cv Nipponbare; conditions: 10^−8M, 24 hours submersion, assessed after two weeks, FIG. 3
Procedure: (§1) Oryza sativa cv Nipponbare wild-type and Tos17 insertion lines in POLLUX (line NC6453) and DMI3 were used for root architecture experiments (12, 13). Seeds were prepared by sterilizing with 2% bleach for 20 minutes, followed by 3, 5-minute rinses with sterile water. The sterile seeds were then imbibed overnight. Seeds were then plated on damp germination paper in Petri plates under sterile conditions and germinated in the dark at 25 degrees for 7 days. Germinated rice plants were then plated on Fahraeus medium on germination paper and grown at 22 degrees under constant light. After 5 days the plants were treated with 10^−8M LCOs and COs for 24 hours by submersion and re-plated onto Fåhræus Medium 1.5% agar plates (0.132 g/L CaCl2, 0.12 g/L MgSO4.7H2O, 0.1 g/L KH2PO4, 0.075 g/L Na2HPO4.2H2O, 5 mg/L Fe-citrate, and 0.07 mg/L each of MnCl2.4H2O, CuSO4.5H2O, ZnCl2, H3BO3, and Na2MoO4.2H2O, adjusted to pH 6.5 before autoclaving). As all signals were suspended in 50% ethanol, the appropriate concentration of ethanol in sterile DI water served as a control. Root system architecture was assessed after 2 weeks.
(§2) Total lateral roots of rice were enumerated manually two weeks after application of 10^−8M COs and LCOs. As COs and LCOs were suspended in 50% ethanol, the control is sterile deionized water containing the appropriate amount of ethanol. Lateral roots were defined as large and fine lateral roots emerging from crown roots, as well as fine lateral roots emerging from large lateral roots. Root system length was measured starting from the root-shoot junction to the tip of the longest root. The number of crown roots was assessed manually as those roots emerging from the root-shoot junction. Root type characterizations were based upon the descriptions in Gutjahr et al. (19). Data were assessed for normality using the Shapiro-Wilk test (α=0.01), and statistical significance was determined using a paired t-test assuming unequal variances, or a Mann-Whitney-Wilcoxon Test if normality was not observed (α=0.05). All statistical analysis was conducted using the R software package (20).

[2] = system: rice knock-out mutants of pollux and dmi3; test: Root architecture modification in rice Ospollux and Osdmi3 mutants; assay type: in vivo, Oryza sativa cv Nipponbare; conditions: 10^−8M; Ospollux and Osdmi3 mutants vs wild-type; FIG. 4
Procedure: as §1
as §2, with “Lateral roots were defined as large and fine lateral roots emerging from crown roots, as well as fine lateral roots emerging from large lateral roots.” left out, “Root type characterizations were based upon the descriptions in Gutjahr et al. (19).” left out, “All statistical analysis was conducted using the R software package (20).” left out
To assess the role of the common symbiotic pathway in regulating root architecture modifications in response to purified LCOs and COs, we quantified root responses to mycorrhizal signals in rice knock-out mutants of pollux (upstream of calcium spiking) and dmi3 (downstream of calcium spiking).

M. truncatula = test: Lateral root emergence in M. truncatula; assay type: in vivo, Medicago truncatula; conditions: 10^−7 M; fold induction relative to the control; FIG. 7
Procedure: M. truncatula roots were treated with 10^−7 M CO4 or 10^−7 M NS-LCO and the effect on lateral root emergence was measured. The numbers in parentheses indicate the number of plants analyzed. The significance of the difference to the […] control plants, as measured using a t-test, is indicated. The treatments are measured as fold induction relative to the control. Error bars represent the standard error.
Accordingly, the disclosed method is limited in scope to treating non-leguminous plants, or seeds, seedlings or plant parts thereof.

Row | Substance | calcium spiking in trichoblasts [1] | crown root growth (rice) | lateral root growth (rice) | root system length (rice) | dependence of overall root length increase on POLLUX / DMI3 [2] | lateral root emergence (M. truncatula)
1 | LCO-IV (C16:0 or C18:1) [NS-LCO] | did not induce calcium spiking | promoted | promoted | enhanced | dependent upon both POLLUX and DMI3 | promotion
2 | LCO-IV (C16:0, S or C18:1, S) [S-LCO] | did not induce calcium spiking | promoted | promoted |  |  | 
